We go through 17 compounds from patent US20130109682A1, “CYCLIC ETHER COMPOUNDS USEFUL AS KINASE INHIBITORS” (NOVARTIS AG, priority 2010, published 2013).

Assay [1] has as its target GSK3β (Homo sapiens, UniProt P49841). In words: GSK3β ATP depletion assay. In kind it is biochemical. To be noted: ATP depletion assay; read-out: GSK3b IC50. An outline of the steps:
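Human GSK3β (5 nM) preincubated 15 min with 10 μM biotinylated phospho-CREB peptide in pH 7.5 Tris buffer (15 mM MgCl2, 1 mM DTT, 0.1% BSA, 2.5% DMSO). Reaction started with 2 μM ATP and run to about 50% ATP depletion. Remaining ATP measured by KinaseGlo luminescence.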

The test system of assay [2] is KMS11 (human myeloma cell line). In words: Cell proliferation assay (CellTiter-Glo), KMS11. The format is cell-based. To be noted: Homo sapiens, KMS-11; KMS11 cells, cell proliferation; read-out: KMS11-Luc EC50. The essentials:
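KMS11 cells in IMDM with 10% FBS and sodium pyruvate, seeded at 2000 cells/well on assay day. Compound added at 2× to equal volume of cells, incubated 3 days at 37° C. Viability read by CellTiter-Glo luminescence; EC50 derived.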
(ATP-based viability assays read luminescence as a measure of living cells.)

The target of assay [3] is PIM1 (Homo sapiens, UniProt P11309). In words: Pim 1 AlphaScreen assay (high ATP). The settings on record: read-out: Pim1 IC50. The format is biochemical. An outline of the steps:
(§1)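 This is a bead-based AlphaScreen run at high ATP (11-125× Km) with biotin-Bad peptide (100 nM in the substrate mix), in 50 mM Hepes pH 7.5, 5 mM MgCl2, 0.05% BSA, 0.01% Tween-20, 1 mM DTT and 2.5% DMSO final. After ~2 h the reaction was stopped with EDTA. Phospho-peptide was detected overnight with anti-phospho Ser/Thr antibody on Protein A and streptavidin beads, giving IC50.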
(In general: In Alpha technology, singlet oxygen from a donor bead excites a nearby acceptor bead.)

In assay [4] the target is PIM2 (Homo sapiens, UniProt Q9P1W9). Briefly: Pim 2 AlphaScreen assay (high ATP). The format is biochemical. The settings on record: read-out: Pim2 IC50. The essentials: as §1
PIM2, sequence (Q9P1W9 whole entry): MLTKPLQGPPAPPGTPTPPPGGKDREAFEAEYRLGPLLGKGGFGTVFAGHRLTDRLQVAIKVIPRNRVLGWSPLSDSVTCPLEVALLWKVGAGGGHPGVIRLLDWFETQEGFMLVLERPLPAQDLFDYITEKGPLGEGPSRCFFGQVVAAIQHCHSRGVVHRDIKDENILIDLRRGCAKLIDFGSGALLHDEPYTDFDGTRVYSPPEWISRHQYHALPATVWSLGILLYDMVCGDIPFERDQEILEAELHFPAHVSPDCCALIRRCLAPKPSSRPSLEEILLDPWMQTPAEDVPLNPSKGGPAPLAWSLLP
The target of assay [5] is PIM3 (Homo sapiens, UniProt Q86V86). In words: Pim 3 AlphaScreen assay (high ATP). In kind it is biochemical. To be noted: read-out: Pim3 IC50. The essentials: as §1

pEC50, pIC50: −log10 of the molar value.

GSK3β, sequence (P49841 whole entry, species assumed): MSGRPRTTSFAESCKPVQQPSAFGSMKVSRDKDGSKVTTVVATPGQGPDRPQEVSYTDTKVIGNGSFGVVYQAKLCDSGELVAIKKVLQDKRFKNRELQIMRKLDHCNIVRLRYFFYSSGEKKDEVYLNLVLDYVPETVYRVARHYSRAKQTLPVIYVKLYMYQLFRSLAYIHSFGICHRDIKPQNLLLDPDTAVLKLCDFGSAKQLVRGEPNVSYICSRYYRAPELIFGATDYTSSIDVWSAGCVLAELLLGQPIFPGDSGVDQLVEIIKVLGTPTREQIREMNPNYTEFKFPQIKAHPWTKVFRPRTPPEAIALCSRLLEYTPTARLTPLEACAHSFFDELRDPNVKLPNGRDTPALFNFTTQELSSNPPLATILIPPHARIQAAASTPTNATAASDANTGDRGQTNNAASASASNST
PIM1, sequence (P11309 whole entry): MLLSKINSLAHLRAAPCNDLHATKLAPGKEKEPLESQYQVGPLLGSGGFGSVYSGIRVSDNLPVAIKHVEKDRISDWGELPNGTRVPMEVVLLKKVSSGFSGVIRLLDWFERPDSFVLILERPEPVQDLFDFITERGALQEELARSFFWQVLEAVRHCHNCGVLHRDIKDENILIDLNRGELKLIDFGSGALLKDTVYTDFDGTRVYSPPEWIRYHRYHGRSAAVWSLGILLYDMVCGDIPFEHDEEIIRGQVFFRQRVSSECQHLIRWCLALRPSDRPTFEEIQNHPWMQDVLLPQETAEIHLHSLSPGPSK

In the case of `CNC(=O)c1ccc(F)c(-c2nc(C(=O)Nc3cnccc3C3C[C@@H](N)[C@H](O)[C@@H](C(C)C)O3)ccc2F)c1F` (stereo in doubt) [Example 316, N-(4-((2S,4R,5S,6R)-4-amino-5-hydroxy-6-isopropyltetrahydro-2H-pyran-2-yl)pyridin-3-yl)-6-(2,6-difluoro-3-(methylcarbamoyl)phenyl)-5-fluoropicolinamide], the pIC50 in assay [1] is 5.36; in assay [3] it was 9.57; in assay [4], 8.29; in assay [5] it was 8.24. Further, the pEC50 in assay [2] was 7.22.

On to `CC(C)[C@H]1OC(c2ccncc2NC(=O)c2ccc(F)c(-c3c(F)ccc(C(=O)N(C)C)c3F)n2)C[C@@H](N)[C@@H]1O` (stereo in doubt) [Example 317, N-(4-((2S,4R,5S,6R)-4-amino-5-hydroxy-6-isopropyltetrahydro-2H-pyran-2-yl)pyridin-3-yl)-6-(3-(dimethylcarbamoyl)-2,6-difluorophenyl)-5-fluoropicolinamide], for which the pIC50 in assay [1] was less than 4.60; in assay [3] it was 9.00; in assay [4] it was 8.18; in assay [5], 8.02. Besides, the pEC50 in assay [2] is 7.10.

Take `COCCOc1cc(F)c(-c2nc(C(=O)Nc3cnccc3C3C[C@@H](N)[C@H](O)[C@@H](C(C)C)O3)ccc2F)c(F)c1` (stereo in doubt) [Example 318, N-(4-((2S,4R,5S,6R)-4-amino-5-hydroxy-6-isopropyltetrahydro-2H-pyran-2-yl)pyridin-3-yl)-6-(2,6-difluoro-4-(2-methoxyethoxy)phenyl)-5-fluoropicolinamide]: the pIC50 in assay [1] was 5.94; in assay [3], 10.30; in assay [4], 8.64; in assay [5], 8.77. Besides, in assay [2], the pEC50 is 7.10.

For `CC(C)[C@H]1OC(c2ccncc2NC(=O)c2ccc(F)c(-c3c(F)cc(OCCO)cc3F)n2)C[C@@H](N)[C@@H]1O` (stereo in doubt) [Example 319, N-(4-((2S,4R,5S,6R)-4-amino-5-hydroxy-6-isopropyltetrahydro-2H-pyran-2-yl)pyridin-3-yl)-6-(2,6-difluoro-4-(2-hydroxyethoxy)phenyl)-5-fluoropicolinamide], the pIC50 in assay [1] is 5.80; in assay [3], 10.15; in assay [4] it was 8.46; in assay [5], 8.74. For the same compound, the pEC50 in assay [2] is 7.52.

Take `CC(C)[C@@H]1C[C@H](N)CC(c2ccncc2NC(=O)c2ccnc(-c3c(F)cccc3F)n2)O1` (stereo in doubt) [Example 328, N-(4-((2S,4S,6S)-4-amino-6-isopropyltetrahydro-2H-pyran-2-yl)pyridin-3-yl)-2-(2,6-difluorophenyl)pyrimidine-4-carboxamide]: in assay [2], the pEC50 is 6.27. For the same compound, the pIC50 is 8.15 in assay [3], 6.78 in assay [4] and 6.76 in assay [5].

Take `C[C@H]1O[C@@H](c2ccncc2NC(=O)c2nn(Cc3ccccc3)cc2N)C[C@@H](O)[C@]1(C)O` [Example 218, 4-amino-1-benzyl-N-(4-((2R,4R,5S,6R)-4,5-dihydroxy-5,6-dimethyltetrahydro-2H-pyran-2-yl)pyridin-3-yl)-1H-pyrazole-3-carboxamide]: the pIC50 in assay [1] is 5.89; in assay [3], 4.90; in assay [4] it was less than 4.60; in assay [5] it was less than 4.60. Moreover, in assay [2], the pEC50 was less than 5.00.

As to `C[C@@H]1O[C@H](c2ccncc2NC(=O)c2ccc(F)c(-c3c(F)cccc3F)n2)C[C@H](N)[C@@]1(C)O` [Example 220, N-(4-((2S,4S,5R,6S)-4-amino-5-hydroxy-5,6-dimethyltetrahydro-2H-pyran-2-yl)pyridin-3-yl)-6-(2,6-difluorophenyl)-5-fluoropicolinamide], the pIC50 in assay [1] was 5.04; in assay [3], 8.68; in assay [4], 6.64; in assay [5] it was 7.52. Further, the pEC50 in assay [2] is 5.21.

With `CC(C)[C@H]1O[C@@H](c2ccncc2NC(=O)c2nc(-c3c(F)cccc3F)ncc2N)C[C@@H](N)[C@@H]1O` [Example 272, 5-amino-N-(4-((2R,4R,5S,6R)-4-amino-5-hydroxy-6-isopropyltetrahydro-2H-pyran-2-yl)pyridin-3-yl)-2-(2,6-difluorophenyl)pyrimidine-4-carboxamide], the pIC50 was 5.91 in assay [1], 9.18 in assay [3], 7.96 in assay [4] and 8.05 in assay [5].

`CC(C)(C)[C@H]1O[C@@H](c2ccncc2NC(=O)c2ccnc(-c3c(F)cccc3F)n2)C[C@@H](N)[C@@H]1O` [Example 277, N-(4-((2R,4R,5S,6R)-4-amino-6-(tert-butyl)-5-hydroxytetrahydro-2H-pyran-2-yl)pyridin-3-yl)-2-(2,6-difluorophenyl)pyrimidine-4-carboxamide]: the pIC50 in assay [1] is 6.30; in assay [3], 8.98; in assay [4], 7.56; in assay [5], 7.64.

Turning to `C[C@]1(O)[C@H](N)C[C@H](c2ccncc2NC(=O)c2ccc(F)c(-c3c(F)cccc3F)n2)OC12CC2` [Example 289, N-(4-((5R,7R,8S)-7-amino-8-hydroxy-8-methyl-4-oxaspiro[2.5]octan-5-yl)pyridin-3-yl)-6-(2,6-difluorophenyl)-5-fluoropicolinamide], the pIC50 was 5.16 in assay [1], 8.60 in assay [3], 6.67 in assay [4] and 7.53 in assay [5].

As for `Cc1cc(F)c(-c2nc(C(=O)Nc3cnccc3[C@@H]3C[C@@H](N)CC(C)(C)O3)ccc2F)c(F)c1` [Example 313, N-(4-((2S,4R)-4-amino-6,6-dimethyltetrahydro-2H-pyran-2-yl)pyridin-3-yl)-6-(2,6-difluoro-4-methylphenyl)-5-fluoropicolinamide], the pIC50 is 6.89 in assay [1], 10.22 in assay [3], 8.07 in assay [4] and 8.85 in assay [5]. For the same compound, the pEC50 in assay [2] is 6.44.

Take `CC1(C)C[C@H](N)C[C@@H](c2ccncc2NC(=O)c2ccc(F)c(-c3c(F)cc(OCCO)cc3F)n2)O1` [Example 314, N-(4-((2S,4R)-4-amino-6,6-dimethyltetrahydro-2H-pyran-2-yl)pyridin-3-yl)-6-(2,6-difluoro-4-(2-hydroxyethoxy)phenyl)-5-fluoropicolinamide]: the pIC50 is 6.96 in assay [1], 10.30 in assay [3], 8.12 in assay [4] and 8.96 in assay [5]. In addition, in assay [2], the pEC50 is 7.22.

For the compound `COCCOc1cc(F)c(-c2nc(C(=O)Nc3cnccc3[C@@H]3C[C@@H](N)CC(C)(C)O3)ccc2F)c(F)c1` [Example 315, N-(4-((2S,4R)-4-amino-6,6-dimethyltetrahydro-2H-pyran-2-yl)pyridin-3-yl)-6-(2,6-difluoro-4-(2-methoxyethoxy)phenyl)-5-fluoropicolinamide], the pIC50 is 6.92 in assay [1], 10.15 in assay [3], 7.93 in assay [4] and 8.82 in assay [5]. Besides, the pEC50 in assay [2] was 6.70.

Turning to `CC(C)[C@H]1O[C@@H](c2ccncc2NC(=O)c2ccc(F)c(-c3c(F)ccc(C#N)c3F)n2)C[C@@H](N)[C@@H]1O` [Example 329, N-(4-((2R,4R,5S,6R)-4-amino-5-hydroxy-6-isopropyltetrahydro-2H-pyran-2-yl)pyridin-3-yl)-6-(3-cyano-2,6-difluorophenyl)-5-fluoropicolinamide], the pEC50 in assay [2] is 6.72. The negative logarithm of the IC50 (pIC50) in assay [3] was 9.15; in assay [4] it was 7.83; in assay [5], 7.83.

Take `CC(C)[C@H]1O[C@@H](c2ccncc2NC(=O)c2ccc(F)c(-c3ccc(C#N)cc3F)n2)C[C@@H](N)[C@@H]1O` [Example 330, N-(4-((2R,4R,5S,6R)-4-amino-5-hydroxy-6-isopropyltetrahydro-2H-pyran-2-yl)pyridin-3-yl)-6-(4-cyano-2-fluorophenyl)-5-fluoropicolinamide]: the pEC50 in assay [2] was 5.61. For the same compound, the results for the negative logarithm of the IC50 (pIC50) in assay [3], in assay [4] and in assay [5] were 8.70, 6.64 and 6.63, respectively.

Regarding `CC[C@H]1O[C@@H](c2ccncc2NC(=O)c2ccc(F)c(-c3c(F)cccc3F)n2)C[C@@H](N)[C@@H]1O` [Example 331, N-(4-((2R,4R,5S,6R)-4-amino-6-ethyl-5-hydroxytetrahydro-2H-pyran-2-yl)pyridin-3-yl)-6-(2,6-difluorophenyl)-5-fluoropicolinamide], the pEC50 in assay [2] was 7.15. For the same compound, the pIC50 is 9.70 in assay [3], 7.93 in assay [4] and 8.22 in assay [5].

Turning to `CC[C@@H]1O[C@H](c2ccncc2NC(=O)c2ccc(F)c(-c3c(F)cccc3F)n2)C[C@H](N)[C@H]1O` [Example 332, N-(4-((2S,4S,5R,6S)-4-amino-6-ethyl-5-hydroxytetrahydro-2H-pyran-2-yl)pyridin-3-yl)-6-(2,6-difluorophenyl)-5-fluoropicolinamide], the pEC50 in assay [2] was 5.38. The values for the pIC50 in assay [3], in assay [4] and in assay [5] were 8.20, 6.51 and 6.80, respectively.

As usually defined, the pIC50 is −log10 of the IC50, conventionally taken in molar units. Usually pEC50 stands for the EC50 on a negative log10 scale, so that one unit is a factor of ten.
